This passage reports EC50 results from patent publication US11939320B2, “Modulators of the integrated stress pathway” (Calico Life Sciences LLC, priority 2017, dated 2024).

Usually pEC50 stands for the EC50 on a negative log10 scale, so that one unit is a factor of ten.

Molecules are shown by their SMILES. pEC50: −log10 of the molar value.

The test system of the assay is HEK293T cells carrying the ATF4 luciferase reporter. In words: ATF4-Luc assay (in vitro model of VWMD). In kind it is cell-based. The conditions noted are these: Homo sapiens, HEK-293T; HEK293T cells with ATF4 5'-UTR firefly luciferase reporter; 1 μg/mL tunicamycin; 7 hours; One Glo luminescence. In short, it runs like this:
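Compound at 200 nM and tunicamycin at 1 μg/mL were given together for 7 h to HEK293T cells stably transduced with an ATF4 5′-UTR-driven firefly luciferase reporter. Read-out by luminescence, reported as EC50.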
(In general: Reporter assays use an easily measured gene product as a stand-in for the process of interest.)
Consider `O=C(COc1ccc(Cl)c(F)c1)N[C@H]1CC[C@H](C(=O)N(CCO)Cc2ccc(Cl)c(F)c2)CC1` [Compound 181, (1r,4r)-4-[2-(4-chloro-3-fluorophenoxy)acetamido]-N-[(4-chloro-3-fluorophenyl)methyl]-N-(2-hydroxyethyl)cyclohexane-1-carboxamide], for which the pEC50 is 5.70 to 6.30.

As to `O=C(COc1ccc(Cl)c(Cl)c1)N[C@H]1CC[C@H](C(=O)NCc2cc(CO)ccn2)CC1` [Compound 182, (1r,4r)-4-[2-(3,4-dichlorophenoxy)acetamido]-N-{[4-(hydroxymethyl)pyridin-2-yl]methyl}cyclohexane-1-carboxamide], the pEC50 is less than 5.70.

On to `O=C(COc1ccc(Cl)c(Cl)c1)N[C@H]1CC[C@H](C(=O)NCc2ccc(C(F)(F)F)cn2)CC1` [Compound 183, (1r,4r)-4-[2-(3,4-dichlorophenoxy)acetamido]-N-{[5-(trifluoromethyl)pyridin-2-yl]methyl}cyclohexane-1-carboxamide], for which the pEC50 is more than 8.00.

In the case of `O=C(COc1ccc(Cl)c(Cl)c1)N[C@H]1CC[C@H](C(=O)NCc2ccc(C(F)F)cn2)CC1` [Compound 184, (1r,4r)-4-[2-(3,4-dichlorophenoxy)acetamido]-N-{[5-(difluoromethyl)pyridin-2-yl]methyl}cyclohexane-1-carboxamide], the pEC50 was 7.30 to 8.00.

With `O=C(COc1ccc(Cl)c(F)c1)N[C@@H]1CC[C@@H](C(=O)NCc2ccc(Cl)c(F)c2)OC1` [Compound 185, (2S,5R)-5-[2-(4-chloro-3-fluorophenoxy)acetamido]-N-[(4-chloro-3-fluorophenyl)methyl]oxane-2-carboxamide], the pEC50 was 7.30 to 8.00.

For `O=C(COc1ccc(Cl)c(F)c1)N[C@@H]1CC[C@@H](C(=O)NCc2ccc(C(F)(F)F)cn2)OC1` [Compound 186, (2S,5R)-5-[2-(4-chloro-3-fluorophenoxy)acetamido]-N-{[5-(trifluoromethyl)pyridin-2-yl]methyl}oxane-2-carboxamide], the pEC50 is 7.30 to 8.00.

As for `O=C(COc1ccc(Cl)c(F)c1)N[C@H]1CC[C@H](C(=O)NCc2ccc(C(F)F)cn2)CC1` [Compound 187, (1r,4r)-4-[2-(4-chloro-3-fluorophenoxy)acetamido]-N-{[5-(difluoromethyl)pyridin-2-yl]methyl}cyclohexane-1-carboxamide], the pEC50 was 7.30 to 8.00.
